Seven compounds from ChEMBL document CHEMBL1147347, “Luffariolides F and G, new manoalide derivatives from the Okinawan marine sponge Luffariella sp” (J Nat Prod, 1993) can be followed below.

In brackets after ≈: the same amount, converted by molar mass.

One assay relates to L1210. As to the kind of experiment: Cytotoxicity against mouse L1210 cells. In kind it is functional, cell-based.
Assay [1] concerns KB. Put plainly: Cytotoxicity against human KB cells. The format is functional, cell-based.
Assay [2] relates to KB. As to the kind of experiment: Growth inhibition of human KB cells at 10 ug/ml. The format is functional. Particulars: read-out: GI.

Usually IC50 stands for the concentration needed to halve the response being measured. A low value points to greater potency. For the compound `CC1=C(CC/C(C)=C/CC/C(C=O)=C\C[C@H]2OC(=O)C=C2CO)C(C)(C)CCC1`, the IC50 was 1 µg/mL (≈ 2.5 µM) with L1210 and 5.6 µg/mL (≈ 14 µM) with KB [1].
For `CC1=C(CC/C(C)=C/CCC2=CC[C@H](C3=CC(=O)O[C@H]3O)O[C@H]2O)C(C)(C)CCC1` [MANOALIDE], in that order: 0.032 µg/mL (≈ 0.0768 µM) and 0.31 µg/mL (≈ 0.744 µM).
Take `CC1=C(CC/C(C)=C/CC/C(=C/C[C@H]2OC(=O)C=C2CO)CO)C(C)(C)CCC1`: the IC50 in the assay with L1210 amounted to 1.7 µg/mL (≈ 4.22 µM). Besides, the inhibition of growth at 10 µg/mL in the assay on KB [2] is 36.9%.
For `CC1=C(CC/C(C)=C/CC/C(=C/CC2OC(=O)C=C2CO)CO)C(C)(C)CCC1O` (centres undefined) [LUFFARIOLIDE F], in that order: 1.6 µg/mL (≈ 3.82 µM) and 33.4%.
In the case of `CC1=C(CC/C(C)=C/CC/C(C=O)=C\C=C\C2=CC(=O)O[C@H]2O)C(C)(C)CCC1`, the IC50 in the assay on L1210 stood at 0.45 µg/mL (≈ 1.13 µM); in the assay with KB [1] it was 2.1 µg/mL (≈ 5.27 µM).
Take `CC(=O)OC/C(=C\C[C@H]1OC(=O)C=C1CO)CC/C=C(\C)CCC1=C(C)CCCC1(C)C`: half-maximal inhibition in the assay on L1210 (IC50) required 3 µg/mL (≈ 6.75 µM). Besides, in the assay with KB [2], the inhibition of growth at 10 µg/mL worked out at 44.8%.
`CC1=C(CCC(C)(O)/C=C/C/C(=C/CC2OC(=O)C=C2CO)CO)C(C)(C)CCC1` (centres undefined) [LUFFARIOLIDE G] gave an IC50 in the assay with L1210 of 2.8 µg/mL (≈ 6.69 µM). Moreover, the inhibition of growth at 10 µg/mL with KB [2] was determined as 30.8%.
